Columns and labels:
[1] = biological target: T1, Bromodomain-containing protein 4 (Homo sapiens, UniProt O60885); experiment: (§1) BRD4 Biochemical Activity Test: The experiment plate was a plate that contained a gradient concentration of the compound and a corresponding DMSO solution and was prepared with ECHO before the experiment:a) The experiment plate was taken out, and 5 μL/well of “solution A” (protein solution) was added to columns 2-23 of the experiment plate, then 5 μL/well of 1× assay buffer was added to columns 1 and 24 of the experiment plate, and columns 1 and 24 were used as Min control in the experiment system;b) Centrifugation at 1000 rpm was carried out for 30 seconds;c) The plate was incubated at 23° C. for 20 minutes;d) After 20 minutes of incubation, 5 μL/well of “solution B” (polypeptide solution) was added to columns 1-24 of the experiment plate;e) Centrifugation at 1000 rpm was carried out for 30 seconds;f) The plate was incubated at 23° C. for 20 minutes;g) After 20 minutes of incubation, 5 μL/well of “solution C” (test reagent solution) was added to columns 1-24 of the experiment plate;h) Centrifugation at 1000 rpm was carried out for 30 seconds;i) The plate was incubated at 23° C. for 40 minutes;j) The experiment plate was placed on EnVision to read the plate.
[2] = biological target: T1, Bromodomain-containing protein 4; experiment: as §1; remark: listed apart in the source

| SMILES | IC50 [1] | IC50 [2] |
| --- | --- | --- |
| Cc1sc2c(c1C)C(c1ccc(Cl)cc1)=N[C@@H](CC(=O)Nc1ccc(O)c3c1COC3)c1nnc(C)n1-2 | 100 nM | 21 nM |
| Cc1sc2c(c1C)C(c1ccc(Cl)cc1)=N[C@@H](CC(=O)Nc1ccc3c(c1)CS(=O)(=O)C3)c1nnc(C)n1-2 | 49 nM | 14 nM |
